Read-outs that look alike come from different tables or passages of the source.

The target of assay [1] is T1, human CB1 (hCB1) receptor (Homo sapiens, UniProt P21554).
T1 construct: expressed in transfected cells; host or cells: CHO (Chinese hamster ovary) cells, membranes
The assay is described as follows: CB1 binding assay, competitive binding of [3H]CP 55940. Also on record: % Inhibition of Control Specific Binding CB1: concentration or dose not given beside the values. As to conditions: for inhibition at 10 µM / inhibition at 1 µM: specific binding of [3H]-CP55940; for inhibition at 1 µM: CHO membranes. How it is done: Cell membrane homogenates (25 μg protein) are incubated for 120 min at 37° C. with 0.5 nM [^3H]CP 55940 (the reference standard [Rinaldi-Carmona, 1996 #1320]) in the absence or presence of the test compound in a buffer containing 50 mM Tris HCl (pH 7.4), 5 mM MgCl2, 2.5 mM EDTA, and 0.3% bovine serum albumin (BSA). […]
(§1) […] [^3H]-CP55940 at a concentration of 0.5 nM and [^3H]-WIN55212 at a concentration of 0.8 nM were used as radioligands for hCB1 and hCB2 assays, respectively. The results are expressed as a percent inhibition of control specific binding. Compounds which displaced the radioligand by more than 50% for either hCB1 or hCB2 receptors were arbitrary chosen for functional activity determination.

For assay [2], the target named is T2, human CB2 (hCB2) receptor (Homo sapiens, UniProt P34972).
T2 construct: expressed in transfected cells; host or cells: CHO (Chinese hamster ovary) cells, membranes
T2 sequence (P34972 whole entry): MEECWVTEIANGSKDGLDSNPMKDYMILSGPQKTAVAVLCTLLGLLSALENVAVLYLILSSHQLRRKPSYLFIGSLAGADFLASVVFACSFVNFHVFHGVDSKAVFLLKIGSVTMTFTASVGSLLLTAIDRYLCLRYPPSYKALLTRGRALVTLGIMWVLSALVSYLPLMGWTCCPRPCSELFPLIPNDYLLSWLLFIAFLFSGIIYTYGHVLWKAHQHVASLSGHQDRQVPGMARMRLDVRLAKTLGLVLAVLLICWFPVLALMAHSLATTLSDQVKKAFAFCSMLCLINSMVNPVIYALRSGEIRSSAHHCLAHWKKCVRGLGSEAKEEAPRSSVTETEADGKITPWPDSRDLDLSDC
In words: CB2 binding assay, competitive binding of [3H]WIN 55212-2. As to conditions: for inhibition at 10 µM: read-out: % inhibition hCB2 receptor, at 10 μM; for inhibition at 10 µM / inhibition at 1 µM: specific binding of [3H]-WIN55212-2; for inhibition at 1 µM: read-out: % inhibition hCB2 receptor, at 1 μM, CHO membranes. The procedure: Cell membrane homogenates (15 μg protein) are incubated for 120 min at 37° C. with 0.8 nM [^3H]WIN 55212-2 (the reference standard [Munro, 1993 #1321]) in the absence or presence of the test compound in a buffer containing 50 mM HEPES/Tris HCL (pH 7.4), 5 mM MgCl2, 2.5 mM EGTA, and 0.1% BSA. Nonspecific binding is determined in the presence of 10 μM WIN 55212-2. After being incubated, the samples are filtered rapidly under vacuum through glass fiber filters (GF/B; Packard) presoaked with 0.3% PEI and rinsed several times with ice-cold buffer containing 50 mM Tris HCl (pH 7.4) and 0.5% BSA using a 96-sample cell harvester (Unifilter; Packard). The filters are dried then counted for radioactivity in a scintillation counter (Topcount; Packard) using a scintillation cocktail (Microscint 0; Packard). The results are expressed as a percentage of the inhibition of the control radioligand-specific binding. The reference standard compounds are tested in each experiment at several concentrations to obtain a competition curve from which its IC50 is calculated.
as §1

Assay [3] deals with T3, hCB2 receptor (Homo sapiens, UniProt P34972).
T3 construct: purchased ES-111-MG; host or cells: CHO membrane extracts
T3 sequence (P34972 whole entry): as above
In words: CB2 functional assay, [35S]GTP-γ-S binding. In kind it is biochemical. The note with it: for Emax at 3 µM: read-out: [35S]GTP-γ-S hCB2 Emax (%), Table 9 footnote a: Efficacy determined at 3 μM, relative to CP 55,940. How it is done:
(§2) A dose response curve was generated at eight concentrations in duplicate on CB1 and CB2 in light of reference agonists.
(§3) Membranes (CB1, ES-110-MG or CB2, ES-111-MG) are mixed with GDP (volume:volume) and incubated for at least […] on ice. In parallel, […] are mixed with the beads (volume:volume) just before starting the reaction. The following reagents are successively added in the wells of an Optiplate: 50 μl of ligand, 20 μl of the membranes:GDP mix, 10 μl of assay buffer for agonist testing and 20 μl of the […]: beads mix. The plates are covered with a topseal, shaken on an orbital shaker for 2 min, and then incubated between 30 to 60 min at room temperature. Then the plates are centrifuged for 10 min at 2000 rpm, incubated at room temperature between 1 to 4 hours and counted for 1 min with a PerkinElmer TopCount reader.
(§4) Functional activity for acyl hydrazone was evaluated using [^35S]GTP-γ-S assay in CHO membrane extracts expressing recombinant hCB1 receptor or hCB2 receptor. The assay relies on the binding of [^35S]GTP-γ-S, a radiolabeled nonhydrolyzable GTP analogue, to the G protein upon binding of an agonist of the G-protein-coupled receptor. In this system, agonists stimulate [^35S]GTP-γ-S binding whereas neutral antagonist have no effect and inverse agonists decrease [^35S]GTP-γ-S basal binding.
(§5) CB1 and CB2 assay data are presented as the mean of two determinations. […] For replicate determinations, the maximum variability tolerated in the test was of ±20% around the average of the replicates.

Assay [4] has as its target CB1 (Homo sapiens, UniProt P21554). The assay is described as follows: CB1 functional assay, [35S]GTP-γ-S binding. Further details: purchased ES-110-MG; host or cells: CHO membrane extracts. The format is biochemical. How it is done:
as §2, §3, §4, §5
Background: Binding of GTPγS marks nucleotide exchange on a G protein.

Setting [5] is: Table 7, relative to the efficacy of CP55940.
The mark [6] stands for this setting: Table 7, mean of two determinations, read-out: [35S]GTP-γ-S (hCB1) EC50 (nM ± SEM).
Where [7] appears, read: Table 9, relative to the efficacy of CP 55,940.
The mark [8] stands for this setting: Table 9, mean of two determinations, read-out: [35S]GTP-γ-S hCB2 EC50 (nM ± SEM).
Where [9] appears, read: Table 10, repeated experiment, read-out: [35S]GTP-γ-S hCB2 EC50.

Chain of CB1 (P21554 whole entry): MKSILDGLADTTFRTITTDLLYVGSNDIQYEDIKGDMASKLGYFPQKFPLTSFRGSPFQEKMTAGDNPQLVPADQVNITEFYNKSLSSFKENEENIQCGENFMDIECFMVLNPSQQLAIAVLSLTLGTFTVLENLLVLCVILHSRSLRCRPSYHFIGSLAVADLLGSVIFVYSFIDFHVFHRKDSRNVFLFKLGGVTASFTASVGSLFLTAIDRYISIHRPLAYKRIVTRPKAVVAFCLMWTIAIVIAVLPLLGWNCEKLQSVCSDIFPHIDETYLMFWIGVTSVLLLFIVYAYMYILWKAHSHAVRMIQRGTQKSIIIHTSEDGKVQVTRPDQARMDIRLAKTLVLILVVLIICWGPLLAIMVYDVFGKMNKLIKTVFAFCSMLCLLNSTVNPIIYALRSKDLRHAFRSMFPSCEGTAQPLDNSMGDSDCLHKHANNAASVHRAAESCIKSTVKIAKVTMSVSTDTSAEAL
T1 sequence (P21554 whole entry): as above

One may read the inhibition as the relative decrease from the control value, in per cent. The term Emax denotes the maximal effect, on the per cent scale that the assay sets. By EC50 is commonly meant the concentration at which the effect is half-maximal. As for `O=C(Cc1ccccc1)N/N=C1\C(=O)N(CCC2CCCCC2)c2ccccc21` [Example 10, N′-[1-(2-cyclohexylethyl)-2-oxo-1,2-dihydro-3H-indol-3-ylidene]-2-phenylacetohydrazide], the inhibition at 10 µM is 88.8 ± 0.6% in assay [1] and 47.2 ± 7.7% in assay [2]. Moreover, the Emax in assay [3] (setting [5]) is 21%; in assay [4] (setting [5]), 75%. Besides, in assay [4] (setting [6]), the EC50 stood at 1238.8 ± 1.2 nM.

Take `CCCCCCC(C)(C)c1ccc([C@@H]2C[C@H](O)CC[C@H]2CCCO)c(O)c1` [CP55,940, reference compound]: the Emax in assay [3] (setting [5]), in assay [3] (setting [7]), in assay [4] (setting [5]) and in assay [4] (setting [7]) was 100% each time.

Regarding `CCCCCCN1C(=O)/C(=N\NC(=O)c2ccccc2)c2cccc(Cl)c21` [Example 29, N′-[(3Z)-7-chloro-1-hexyl-2-oxo-1,2-dihydro-3H-indol-3-ylidene]benzohydrazide], the inhibition at 1 µM in assay [1] came out at 60 ± 1%; in assay [2] it was 29 ± 4.5%. In addition, the concentration giving a half-maximal response (EC50) in assay [3] (setting [8]) was 645.5 ± 1.3 nM. Moreover, the Emax in assay [3] (setting [7]) is 64.8%.

As to `CCCCCCN1C(=O)/C(=N\NC(=O)Cc2ccccc2)c2ccccc21` [Example 7, Phenylacetic acid [1-n-hexyl-2-oxo-1,2-dihydro-indol-3-ylidene]-hydrazide], the “% Inhibition of Control Specific Binding” value in assay [1] (CB1, Test Concentration 1.0E−05 (MD)) is 98%; in assay [2] (CB2, Test Concentration 1.0E−05 (MD)), 92%. Besides, the “% of Control Specific Binding 1st” value is given as 0.9% in assay [1] (CB1, Test Concentration 1.0E−05 (MD), 1st determination) and 8.4% in assay [2] (CB2, Test Concentration 1.0E−05 (MD), 1st determination). The “% of Control Specific Binding 2nd” value in assay [1] (CB1, Test Concentration 1.0E−05 (MD), 2nd determination) was 2.6%; in assay [2] (CB2, Test Concentration 1.0E−05 (MD), 2nd determination), 8.5%. Further, the “% of Control Specific Binding Mean” value in assay [1] (CB1, Test Concentration 1.0E−05 (MD), mean) came out at 1.8%; in assay [2] (CB2, Test Concentration 1.0E−05 (MD), mean) it was 8.5%. In addition, the “% Inhibition of Control Specific Binding CB1” value in assay [1] (Table 3, concentration not given) is 98%. Also, the inhibition at 10 µM in assay [1] worked out at 98.2 ± 0.8%; in assay [2] it was 91.5 ± 0.1%. Moreover, the “% Inhibition of Control Specific Binding CB2” value in assay [2] (Table 4, concentration not given) is given as 92%. For the same molecule, the “% Activation Average” value in assay [3] (CB2 Functional Activity) came to 45.79%; in assay [4] (CB1 Functional Activity), 71.88%. In addition, the “Compound Activity” value in assay [3] (CB2 Functional Activity) and in assay [4] (CB1 Functional Activity) was “Agonist” each time. The concentration for a half-maximal effect (EC50) in assay [3] (CB2 Functional Activity, read-out: EC50 (nM) for GTP Binding) turned out to be 189 nM; in assay [3] (Table 7, mean of two determinations, read-out: [35S]GTP-γ-S (hCB2) EC50 (nM ± SEM)), 188.7 ± 1.3 nM; in assay [4] (CB1 Functional Activity, read-out: EC50 (nM) for GTP Binding) it was 459 nM; in assay [4] (setting [6]), 459 ± 1.1 nM. Also, the Emax amounted to 45.8% in assay [3] (setting [5]) and 71.9% in assay [4] (setting [5]).

As to `CCCCCCN1C(=O)/C(=N/NC(=O)OC(C)(C)C)c2ccccc21` [Example 15, tert-butyl (2E)-2-(1-hexyl-2-oxo-1,2-dihydro-3H-indol-3-ylidene)hydrazinecarboxylate], the inhibition at 1 µM in assay [1] was 75 ± 0.1%; in assay [2], 27 ± 3.7%. The “functional activity on CB2 receptor (in words)” value in assay [3] ([35S]GTP-γ-S) is recorded as “failed to exhibited functional activity”. In addition, the Emax at 3 µM in assay [3] came to 23.4%. Also, in assay [4] ([35S]GTP-γ-S), the “functional activity on CB1 receptor (in words)” value was “failed to exhibited functional activity”.

With `COc1ccc2c(c1)N(CCC1CCCCC1)C(=O)/C2=N\NC(=O)c1ccccc1` [Example 41, N′-[(3Z)-1-(2-cyclohexylethyl)-6-methoxy-2-oxo-1,2-dihydro-3H-indol-3-ylidene]benzohydrazide], the Emax in assay [3] (Table 10, repeated experiment) is -104%. Also, in assay [3] (setting [9]), the EC50 was determined as 540 nM.

As for `COc1ccc2c(c1)N(Cc1ccccc1)C(=O)/C2=N\NC(=O)c1ccccc1` [Example 38, N′-[(3Z)-1-benzyl-6-methoxy-2-oxo-1,2-dihydro-3H-indol-3-ylidene]benzohydrazide], the Emax in assay [3] (Table 10, repeated experiment) is -96%. In assay [3] (setting [9]), the EC50 turned out to be 102 nM.

Regarding `CCCCCN1C(=O)/C(=N\NC(=O)c2ccccc2)c2ccc(OC)cc21` [Example 39, N′-[(3Z)-6-methoxy-1-pentyl-2-oxo-1,2-dihydro-3H-indol-3-ylidene]benzohydrazide], the Emax in assay [3] (Table 10, repeated experiment) is -108%. Further, the EC50 in assay [3] (setting [9]) was 5.8 nM.

On to `COc1ccc2c(c1)N(CC1CCCCC1)C(=O)/C2=N\NC(=O)c1ccccc1` [Example 37, N′-[(3Z)-1-(cyclohexylmethyl)-6-methoxy-2-oxo-1,2-dihydro-3H-indol-3-ylidene]benzohydrazide], for which the Emax in assay [3] (Table 10, repeated experiment) is -82%; in assay [4] (Table 10, repeated experiment), 40.8%. The EC50 is 18 nM in assay [3] (setting [9]) and 61.2 nM in assay [4] (Table 10, repeated experiment, read-out: [35S]GTP-γ-S hCB1 EC50).

Turning to `CCCCCCN1C(=O)/C(=N\NC(=O)c2ccccc2)c2cccc(I)c21` [Example 30, N′-[(3Z)-1-hexyl-7-iodo-2-oxo-1,2-dihydro-3H-indol-3-ylidene]benzohydrazide], the inhibition at 1 µM stood at 61 ± 2.5% in assay [1] and 66 ± 3.2% in assay [2]. For the same molecule, the Emax at 3 µM in assay [3] came to 55%.

`CCCCCCN1C(=O)/C(=N\NC(=O)c2ccccc2)c2ccc(OC)cc21` [Example 36, N′-[(3Z)-1-hexyl-6-methoxy-2-oxo-1,2-dihydro-3H-indol-3-ylidene]benzohydrazide]: in assay [3], the EC50 amounted to 85 nM. Moreover, the Emax in assay [3] (Table 10, repeated experiment) was -95%.

As for `CCCCCCN1C(=O)/C(=N\NC(=O)c2ccccc2)c2cccc(C)c21` [Example 28, N′-[(3Z)-1-hexyl-7-methyl-2-oxo-1,2-dihydro-3H-indol-3-ylidene]benzohydrazide], the inhibition at 1 µM worked out at 67 ± 1.6% in assay [1] and 68 ± 3.7% in assay [2]. For the same molecule, the EC50 in assay [3] (setting [8]) worked out at 84 ± 2.2 nM. Besides, in assay [3] (setting [7]), the Emax is 34.2%.

With `CCCN1C(=O)/C(=N\NC(=O)c2ccccc2)c2ccccc21` [Example 21, N′-[(3Z)-1-(1-propyl)-2-oxo-1,2-dihydro-3H-indol-3-ylidene]benzohydrazide], the inhibition at 1 µM stood at 43 ± 1.2% in assay [1] and 32 ± 3.6% in assay [2]. In addition, in assay [3] (setting [8]), the EC50 was determined as 200.7 ± 1.5 nM. The Emax in assay [3] (setting [7]) is 61.4%.

In the case of `CCCCN1C(=O)/C(=N\NC(=O)c2ccccc2)c2ccc(OC)cc21` [Example 40, N′-[(3Z)-1-butyl-6-methoxy-2-oxo-1,2-dihydro-3H-indol-3-ylidene]benzohydrazide], in assay [3] (Table 10, repeated experiment), the Emax was -95%. In addition, the EC50 in assay [3] (setting [9]) amounted to 85 nM.

Consider `CCCCCCN1C(=O)/C(=N\NC(=O)c2ccccc2)c2cc(F)ccc21` [Example 33, N′-[(3Z)-5-fluoro-1-hexyl-2-oxo-1,2-dihydro-3H-indol-3-ylidene]benzohydrazide], for which the inhibition at 1 µM turned out to be 57 ± 0.7% in assay [1] and 46 ± 1.7% in assay [2]. Also, the EC50 in assay [3] (setting [8]) stood at 186.9 ± 1.7 nM. Besides, the Emax in assay [3] (setting [7]) came to 33.8%.

The values above are taken from patent publication US9079854B2 (priority 2007, dated 2015).
